From US20100267561A1, “HERBICIDAL PYRIDAZINONE DERIVATIVES” (priority 2007, published 2010)
Like-named read-outs stand apart in the source and are kept apart here.

Assays:
Type in all cases: in vivo
[1] = tested on: morningglory (Ipomoea coccinea); experiment: Test A pre-/postemergence plant response
In short: (§1)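 Ratings are visual, 0–100, where 100 means complete control and 0 no effect, taken roughly 10 days after treatment by comparison with untreated controls. Formulation: non-phytotoxic solvent mixture with surfactant.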

[2] = tested on: velvetleaf (Abutilon theophrasti); experiment: Test A pre-/postemergence plant response
In short: as §1

[3] = tested on: barnyardgrass (Echinochloa crus-galli); experiment: Test A pre-/postemergence plant response; settings: for pest or weed control at 125 g/ha / pest or weed control at 500 g/ha: Echinochloa crus-galli, 240 h, read-out: Plant response rating, Barnyardgrass; for pest or weed control at 500 g/ha: 500 g ai/ha
In short: as §1

[4] = tested on: large crabgrass (Digitaria sanguinalis); experiment: Test A pre-/postemergence plant response; settings: for pest or weed control at 125 g/ha / pest or weed control at 500 g/ha: Digitaria sanguinalis, 240 h, read-out: Plant response rating, Crabgrass, Large; for pest or weed control at 500 g/ha: 500 g ai/ha
In short: as §1

[5] = tested on: giant foxtail (Setaria faberi); experiment: Test A pre-/postemergence plant response; settings: for pest or weed control at 125 g/ha / pest or weed control at 500 g/ha: Setaria faberi, 240 h, read-out: Plant response rating, Foxtail, Giant; for pest or weed control at 500 g/ha: 500 g ai/ha
In short: as §1

[6] = tested on: wheat (Triticum aestivum); experiment: Test A pre-/postemergence plant response; settings: for plant injury at 125 g/ha / plant injury at 500 g/ha: Triticum aestivum, 240 h, read-out: Plant response rating, Wheat; for plant injury at 500 g/ha: 500 g ai/ha
In short: as §1

[7] = tested on: corn (Zea mays); experiment: Test A pre-/postemergence plant response; settings: for Corn plant response rating (crop injury, 0 = no effect, 100 = complete kill) at 125 g/ha / Corn plant response rating (crop injury, 0 = no effect, 100 = complete kill) at 500 g/ha: Zea mays, 240 h; for Corn plant response rating (crop injury, 0 = no effect, 100 = complete kill) at 500 g/ha: 500 g ai/ha
In short: as §1

[8] = tested on: pigweed (Amaranthus retroflexus); experiment: Test A pre-/postemergence plant response; settings: for pest or weed control at 125 g/ha / pest or weed control at 500 g/ha: Amaranthus retroflexus, 240 h, read-out: Plant response rating, Pigweed; for pest or weed control at 500 g/ha: 500 g ai/ha
In short: as §1

[9] = tested on: umbrella sedge (Cyperus difformis); experiment: Test B flooded paddy test plant response
In short: (§2)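 Paddy-water application to 2-leaf plants in pots held under 3 cm of flooding; response is a 0–100 visual control rating against controls after 13 to 15 days, and a dash marks a missing result.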

[10] = tested on: barnyardgrass (Echinochloa crus-galli); experiment: Test B flooded paddy test plant response
In short: as §2

[11] = Postemergence, 125 g ai/ha, 0 to 100 scale, 0 no effect, 100 complete control
[12] = Postemergence, 500 g ai/ha, 0 to 100 scale, 0 no effect, 100 complete control
[13] = Preemergence, 125 g ai/ha, 0 to 100 scale (0 no effect, 100 complete control)
[14] = Preemergence, 500 g ai/ha, 0 to 100 scale (0 no effect, 100 complete control)
[15] = post-emergence, Postemergence, 125 g ai/ha, 0 to 100 scale, 0 no effect, 100 complete control
[16] = post-emergence, Postemergence, 0 to 100 scale, 0 no effect, 100 complete control
[17] = pre-emergence, Preemergence, 125 g ai/ha, 0 to 100 scale (0 no effect, 100 complete control)
[18] = pre-emergence, Preemergence, 0 to 100 scale (0 no effect, 100 complete control)
[19] = Postemergence, 31 g ai/ha, 0 to 100 scale (0 no effect, 100 complete control)
[20] = Preemergence, 31 g ai/ha, 0 to 100 scale, 0 is no effect, 100 is complete control
[21] = Flood (flooded paddy test), 62 g ai/ha, scale 0 to 100, 0 no effect, 100 complete control
[22] = Flood (flooded paddy test), 125 g ai/ha, scale 0 to 100, 0 no effect, 100 complete control
[23] = Flood (flooded paddy test), 250 g ai/ha, scale 0 to 100, 0 no effect, 100 complete control
[24] = Flood, 31 g ai/ha, scale 0 to 100

Cc1cn(-c2ccc(Cl)cc2)nc1-c1c(O)cnn(C)c1=O [Compound 30, 4-[1-(4-chlorophenyl)-4-methyl-1H-pyrazol-3-yl]-5-hydroxy-2-methyl-3(2H)-pyridazinone]
80%: pest or weed control at 125 g/ha [5, 15]
0%: Corn plant response rating (crop injury, 0 = no effect, 100 = complete kill) at 125 g/ha [7, 15] | Corn plant response rating (crop injury, 0 = no effect, 100 = complete kill) at 125 g/ha [7, 17] | pest or weed control at 125 g/ha [8, 15] | pest or weed control at 500 g/ha [8, 16] | pest or weed control at 125 g/ha [8, 17] | pest or weed control at 500 g/ha [8, 18] | pest or weed control at 62 g/ha ([9]; Cyperus difformis, Flood (flooded paddy test), 62 g ai/ha, scale 0 to 100, 0 no effect, 100 complete control, read-out: Plant response rating, Sedge, Umbrella) | pest or weed control at 125 g/ha ([9]; Cyperus difformis, Flood (flooded paddy test), 125 g ai/ha, scale 0 to 100, 0 no effect, 100 complete control, read-out: Plant response rating, Sedge, Umbrella) | pest or weed control at 250 g/ha ([9]; Cyperus difformis, Flood (flooded paddy test), 250 g ai/ha, scale 0 to 100, 0 no effect, 100 complete control, read-out: Plant response rating, Sedge, Umbrella) | pest or weed control at 31 g/ha ([9]; Cyperus difformis, Flood, 31 g ai/ha, scale 0 to 100, read-out: Plant response rating, Sedge, Umbrella) | pest or weed control at 62 g/ha ([10]; Echinochloa crus-galli, Flood (flooded paddy test), 62 g ai/ha, scale 0 to 100, 0 no effect, 100 complete control, read-out: Plant response rating, Barnyardgrass) | pest or weed control at 125 g/ha ([10]; Echinochloa crus-galli, Flood (flooded paddy test), 125 g ai/ha, scale 0 to 100, 0 no effect, 100 complete control, read-out: Plant response rating, Barnyardgrass) | pest or weed control at 250 g/ha ([10]; Echinochloa crus-galli, Flood (flooded paddy test), 250 g ai/ha, scale 0 to 100, 0 no effect, 100 complete control, read-out: Plant response rating, Barnyardgrass) | pest or weed control at 31 g/ha ([10]; Echinochloa crus-galli, Flood, 31 g ai/ha, scale 0 to 100, read-out: Plant response rating, Barnyardgrass)
100%: pest or weed control at 125 g/ha [3, 17] | pest or weed control at 500 g/ha [3, 18] | pest or weed control at 125 g/ha [4, 17] | pest or weed control at 500 g/ha [4, 18] | pest or weed control at 125 g/ha [5, 17] | pest or weed control at 500 g/ha [5, 18]
40%: plant injury at 125 g/ha [6, 15] | plant injury at 125 g/ha [6, 17]
90%: pest or weed control at 500 g/ha [3, 16] | pest or weed control at 500 g/ha [4, 16] | pest or weed control at 500 g/ha [5, 16] | plant injury at 500 g/ha [6, 18]
70%: Corn plant response rating (crop injury, 0 = no effect, 100 = complete kill) at 500 g/ha [7, 16] | Corn plant response rating (crop injury, 0 = no effect, 100 = complete kill) at 500 g/ha [7, 18]
50%: pest or weed control at 125 g/ha [3, 15] | plant injury at 500 g/ha [6, 16]
0: Plant response rating, Morningglory [1, 11] | Plant response rating, Morningglory [1, 12] | Plant response rating, Morningglory [1, 13] | Plant response rating, Morningglory [1, 14] | Plant response rating, Velvetleaf [2, 11] | Plant response rating, Velvetleaf [2, 12] | Plant response rating, Velvetleaf [2, 13] | Plant response rating, Velvetleaf [2, 14]
60%: pest or weed control at 125 g/ha [4, 15]

Cc1cc(-c2ccc(Cl)cc2)nn1-c1c(OS(=O)(=O)c2ccccc2[N+](=O)[O-])cnn(C)c1=O [Compound 51]
40: Plant response rating, Wheat [6, 11] | Plant response rating, Wheat [6, 20] | Plant response rating, Sedge, Umbrella [9, 21]
70: Plant response rating, Crabgrass, Large [4, 11] | Plant response rating, Foxtail, Giant [5, 11] | Plant response rating, Sedge, Umbrella [9, 23]
90: Plant response rating, Crabgrass, Large [4, 20] | Plant response rating, Foxtail, Giant [5, 20]
80: Plant response rating, Barnyardgrass [3, 11] | Plant response rating, Barnyardgrass [3, 20] | Plant response rating, Wheat [6, 13] | Plant response rating, Corn [7, 13]
10: Plant response rating, Barnyardgrass [10, 22]
20: Plant response rating, Barnyardgrass [3, 19] | Plant response rating, Crabgrass, Large [4, 19] | Plant response rating, Foxtail, Giant [5, 19] | Plant response rating, Corn [7, 19] | Plant response rating, Corn [7, 20]
100: Plant response rating, Barnyardgrass [3, 13] | Plant response rating, Crabgrass, Large [4, 13] | Plant response rating, Foxtail, Giant [5, 13]
30: Plant response rating, Barnyardgrass [10, 23]
0: Plant response rating, Morningglory [1, 19] | Plant response rating, Morningglory [1, 11] | Plant response rating, Morningglory [1, 20] | Plant response rating, Morningglory [1, 13] | Plant response rating, Velvetleaf [2, 19] | Plant response rating, Velvetleaf [2, 11] | Plant response rating, Velvetleaf [2, 20] | Plant response rating, Velvetleaf [2, 13] | Plant response rating, Wheat [6, 19] | Plant response rating, Pigweed [8, 19] | Plant response rating, Pigweed [8, 11] | Plant response rating, Pigweed [8, 13] | Plant response rating, Sedge, Umbrella [9, 24] | Plant response rating, Barnyardgrass [10, 21] | Plant response rating, Barnyardgrass [10, 24]
60: Plant response rating, Corn [7, 11] | Plant response rating, Sedge, Umbrella [9, 22]
